{"source": "patent US12123881B2", "about": "“Rap1-Gtp, Rac1-GTP and FMS-like tyrosine kinase 3 ligand (FLT3-L) as biomarkers for early detection of sepsis” (UNM Rainforest Innovations, priority 2018, dated 2024)", "key": {"[1]": {"tested_on": "Rap1", "experiment": "LPS induced GTP loading of Rap1, GTPase activity measured in cell lysates", "type": "cell-based", "conditions": "Vero E cells, exposed for 30 min", "excerpt": "(§1) To establish a possible mechanistic link connecting GTPase activity, bacteria virulence factors and innate immune response to bacteria, we measured GTPase activity in cell lysates challenged cells with lipopolysaccharide (LPS) a Gram-negative bacterial endotoxin, which stimulates GTP binding to Rap1 in phagocytes and endothelial cells via CD14^18 (FIGS. 1A&B). […] Given the in vitro associations between Flt-3L and Rac1-GTP, we hypothesized that bacterial infection stimulates coordinate-increases in Flt-3L and Rap1-GTP. Furthermore, based on our data we hypothesized that LPS found in Gram negative bacteria, is likely to synergistically upregulate Rap1-GTP in tandem with Flt-3L which stimulates the upregulation of both Rap1-GTP and Rac-GTP. These findings were subsequently built-upon and extended to a retrospective study of longitudinal samples from trauma patients who developed hospital acquired infections. The human plasma samples were analyzed for 41 common inflammatory mediators using the 41plex HCYTMAG-60K-PX41 Cytokine kit, Human (Millipore, MA). In parallel, GTP loading of RhoA, Rac, and Rap1 was measured in cell lysates after their exposure to the plasma samples. […] We have previously disclosed a method of quantitative multiplex measurements of GTP binding to small GTPases. […]\n(§2) C. […] GTPase activity was measured in cell lysates after the cells were exposed to LPS or Flt-3L for 30 min."}, "[2]": {"molecular_target": "T1, ChemR23 (Homo sapiens, UniProt Q99788)", "T1 construct": "endogenous in cells", "T1 sequence (Q99788 1-373)": "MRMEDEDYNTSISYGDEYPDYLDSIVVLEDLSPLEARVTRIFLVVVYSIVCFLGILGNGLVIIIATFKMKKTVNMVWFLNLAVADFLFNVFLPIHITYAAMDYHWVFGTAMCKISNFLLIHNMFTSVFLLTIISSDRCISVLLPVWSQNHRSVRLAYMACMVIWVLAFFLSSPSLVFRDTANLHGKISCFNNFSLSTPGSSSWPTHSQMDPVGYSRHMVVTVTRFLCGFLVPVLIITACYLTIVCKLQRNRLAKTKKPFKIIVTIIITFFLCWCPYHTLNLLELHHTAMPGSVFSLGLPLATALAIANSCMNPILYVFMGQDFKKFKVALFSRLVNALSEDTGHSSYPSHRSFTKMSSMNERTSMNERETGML", "experiment": "G-Trap measurement of Rac1-GTP in cells challenged with Patient #10's plasma, with the ChemR23 antagonist", "type": "cell-based", "conditions": "Patient #10 plasma", "excerpt": "As shown in FIGS. 2-4, the inventors use flow cytometry multiplex beads that are functionalized with signaling effector molecules of target GTP bound small GTPases to determine changes in the concentration of active GTPases in the blood plasma of trauma patients before and after a clinically diagnosed infection (FIGS. 6&7). In this setting, the beads capture GTP-bound GTPases in lysates of cells that were challenged with plasma samples of study subjects and then quantitatively analyzed on a flow cytometer.^9\nPilot study Proteomic of Patient #10 and #14 plasma samples. Laser densitometer readings of duplicate patient plasma samples (#10, and #14) were computer analyzed for differential expression of proteins as previously described. Spot data showing significant differences between patient samples and controls were determined from adjusted p-values using FDR (and Bonferroni) analysis as previously described. Ten spots were selected for mass spectrometry analysis. The selection was based on the magnitude of change in expression as well as positive correlation to trends in GTPase activity. Preliminary validation assay were performed Spot #130-CPN for patient 10 and Spot #102; Angiotensinogen for Patient 14, because of their overt connection to GTPase activity profile and the immediate availability of assay tools to confirm their presence. The value proposition of the invention as a clinical decision support tool is illustrated in FIG. 6. FIG. 6A panels show the patient's vital signs, which are indeterminate. The illness history of Patient 10 is summarized in example Case #2 above caption and recapitulated in FIG. 6B. […] The rationale for testing CPN in secondary assays was based on the following. CPN is a metallocarboxypeptidase that regulates complement anaphylatoxins (C3a, C4a, and C5a). [2; 3; 4] For clarity, the expression of carboxypeptidase N (CPN) are superimposed over changes in GTP binding to Rac1 and Rap1 (FIG. 6C) for days 8-11. […] We reasoned that the plasma upregulation of CPN was due to Haemophilus influenzae associated LPS. […] [6; 7; 8] […] [5]"}, "[3]": {"molecular_target": "T2, ChemR23 (CMKLR1) (Homo sapiens, UniProt Q99788)", "T2 sequence (Q99788 1-373)": "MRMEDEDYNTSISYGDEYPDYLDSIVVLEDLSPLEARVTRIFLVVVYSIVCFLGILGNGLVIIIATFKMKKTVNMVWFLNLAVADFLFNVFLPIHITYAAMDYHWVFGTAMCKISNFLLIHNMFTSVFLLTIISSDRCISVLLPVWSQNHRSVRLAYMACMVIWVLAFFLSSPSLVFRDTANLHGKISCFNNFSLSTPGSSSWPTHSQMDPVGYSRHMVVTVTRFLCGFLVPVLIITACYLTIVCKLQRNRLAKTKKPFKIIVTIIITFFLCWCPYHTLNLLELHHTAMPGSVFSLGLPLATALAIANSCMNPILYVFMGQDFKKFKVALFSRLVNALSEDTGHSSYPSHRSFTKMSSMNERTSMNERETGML", "conditions": "read-out: Kd, antagonist for ChemR23; cited from earlier work"}, "[4]": {"tested_on": "Haemophilus influenzae", "experiment": "Clinical course of Patient #10 under antibiotic treatment, tracked by GTPase assay", "type": "in vivo, human", "excerpt": "FIG. 4 G-Trap data readout, showing: A. Histograms of Cyto-Plex™ beads coded with discrete levels of 700 nm fluorescence beads for target GTPases. B&C. Flow cytometry histograms associated with GTPase activity in cell lysates exposed to blood plasma drawn from Patient #10 shown in FIG. 4D on day 0 (pre-infection) and 11 (post infection). D. Quantitative analysis of GTP binding to cytoplex beads in cell lysates treated with plasma drawn from Patient #10: a person was admitted after being crushed by a car. On day 2 a bacterial infection was suspected, thus a sputum culture was ordered and the patient was treated with broad-spectrum antibiotics including vancomycin and piperacillin/tazobactam. […] Patient's blood pressure trended upwards. On day 7, sputum-culture sent on day #2 was determined to be positive for Haemophilus influenzae and antibiotics were changed to 3 days of ceftriaxone (days 7-9). […] The onset of infection was sensitively detected by an increase in GTP binding to Rap1 and Rac1. […] E. Quantitative analysis of GTPase activity induced by Patient #3 plasma (see FIG. 2A-C). F. Quantitative analysis of GTPase activity induced by Patient #13 plasma. […] G Quantitative analysis of GTPase activity induced by Patient #14 plasma; a person admitted with no injuries after a low-speed car collision. […]"}, "[5]": {"tested_on": "Rap1", "experiment": "Flt-3L induced GTP binding to Rap1, GTPase activity measured in cell lysates", "type": "cell-based", "conditions": "endothelial cells, exposed for 30 min", "excerpt": "as §1, §2"}, "[6]": {"tested_on": "Rac1", "experiment": "Flt-3L induced GTP binding to Rac1, GTPase activity measured in cell lysates", "type": "cell-based", "conditions": "cells exposed to Flt-3L", "excerpt": "as §1"}}}
{"molecule": "lipopolysaccharide [LPS]", "values": [{"measurement": "GTP loading of Rap1", "setting": "[1]", "value": "induced GTP loading of Rap1"}]}
{"molecule": "C[N+](C)(C)CCC(=O)c1cccc2ccccc12.[I-]", "note": "[α-NETA]", "values": [{"measurement": "inhibition of GTPase activity", "setting": "[2]; day 6", "value": 40, "unit": "%"}, {"measurement": "inhibition of GTPase activity", "setting": "[2]; day 11", "value": 20, "unit": "%"}, {"measurement": "inhibition of GTPase activity", "setting": "[2]; day 12", "value": 25, "unit": "%"}, {"measurement": "Kd", "setting": "[3]", "value": "~6", "unit": "µM"}]}
{"molecule": "CO/N=C(\\C(=O)N[C@@H]1C(=O)N2C(C(=O)O)=C(CSc3nc(=O)c(=O)[nH]n3C)CS[C@H]12)c1csc(N)n1", "note": "[Ceftriaxone, ceftriaxone]", "values": [{"measurement": "treatment outcome indicated by GTPase assay", "setting": "[4]; Patient #10, 3 days of treatment (days 7-9), read on day 9", "value": "failure of treatment"}, {"measurement": "clinical outcome", "setting": "[4]; Patient #10, restarted on day 14, lasted 7 days", "value": "patient recovery"}]}
{"molecule": "Flt-3L: hematopoietic four helical bundle cytokine, Fms-like tyrosine kinase-3 ligand (protein, UniProt P49771 27-235, looked up) Fms-related tyrosine kinase 3 …: TQDCSFQHSPISSDFAVKIRELSDYLLQDYPVTVASNLQDEELCGGLWRLVLAQRWMERLKTVAGSKMQGLLERVNTEIHFVTKCAFQPPPSCLRFVQTNISRLLQETSEQLVALKPWITRQNFSRCLELQCQPDSSTLPPPWSPRPLEATAPTAPQPPLLLLLLLPVGLLLLAAAWCLHWQRTRRRTPRPGEQVPPVPSPQDLLLVEH", "values": [{"measurement": "GTP binding to Rap1", "setting": "[5]", "value": "induced GTP binding to Rap1"}, {"measurement": "GTP binding to Rac1", "setting": "[6]", "value": "elicited GTP binding to Rap1 and Rac1"}]}
